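Results reflect a 48-hour exposure of cells in 96-well plates to compound at five concentrations. GI50 is the concentration that inhibits growth by half. TGI is the concentration that stops growth completely.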
Assays:
Test in all cases: DTP human tumour cell line panel, 48 h
[1] = tested on: COLO 205 colon
[2] = tested on: DU-145 prostate
[3] = tested on: HS 578T breast
[4] = tested on: KM12 colon
[5] = tested on: NCI-H226 lung
[6] = tested on: NCI-H522 lung
[7] = tested on: OVCAR-4 ovarian
[8] = tested on: SK-MEL-28 melanoma
[9] = tested on: T-47D breast
[10] = tested on: TK-10 renal

SMILES	GI50 [1] [µM]	GI50 [2] [µM]	TGI [2] [µM]	GI50 [3] [µM]	TGI [3] [µM]	GI50 [4] [µM]	TGI [4] [µM]	GI50 [5] [µM]	TGI [5] [µM]	GI50 [6] [µM]	TGI [6] [µM]	GI50 [7] [µM]	GI50 [8] [µM]	TGI [8] [µM]	GI50 [9] [µM]	TGI [9] [µM]	GI50 [10] [µM]	TGI [10] [µM]	TGI [1] [µM]	TGI [7] [µM]
C[C@@H](CS[As](C)C)C(=O)N1CCC[C@H]1C(=O)O	0.156	0.19	1.68	0.255	0.796	1.9	12.5	0.364	1.65	0.0715	0.199	1.3	0.708	21.8	0.606	5.75	0.268	1.11	–	–
COc1c(B(O)O)cccc1-c1nc2ccc3[nH]ncc3c2c2c1CCCC2	2.2	2.23	25.9	0.0622	7.92	2.25	10.9	1.51	12.2	1.41	10.5	4.23	3.42	10.2	3.36	> 37.7	0.0448	16.4	6.32	27.1
Cc1ccc(NC(=S)C#N)c(C)c1	–	–	> 100	–	> 100	–	> 100	–	> 100	–	> 100	–	–	> 100	–	> 100	–	> 100	> 100	> 100
CC(C)(C)C(=O)c1c(C(F)(F)F)n([O-])c2cc(Cl)c(Cl)cc2[n+]1=O	0.683	0.353	0.803	0.16	0.554	0.19	0.45	1.6	3.12	0.538	1	1.14	0.618	1.6	0.613	1.29	0.842	2.26	1.69	2.37
C=C1C(=O)O[C@H]2[C@H]1CC/C(COC(=O)CCCCCCCC(=O)OC/C1=C/CC[C@@]3(C)O[C@H]3[C@H]3OC(=O)C(=C)[C@@H]3CC1)=C\CC[C@@]1(C)O[C@@H]21	1.76	2.9	10.8	3.84	27.3	1.95	4.26	2.63	6.97	1.97	3.92	4.58	2.94	11.4	2.3	8.26	2.94	7.03	3.78	20.1
C[C@H]1COCCN1c1nc(-c2cnc(N)cc2C(F)F)nc(N2CCOCC2)n1	0.179	0.285	> 100	0.1	0.551	0.318	41	0.127	> 100	0.148	> 60.8	0.174	0.115	0.994	0.0269	0.181	0.0866	0.815	19.8	–
Cc1cc(Cl)nc(N(CCCNc2ccnc3cc(Cl)ccc23)Cc2cccs2)n1	1.39	2.23	14.7	2.21	12.9	2.61	11	2.56	15.5	1.31	4.31	2.81	1.79	5.78	1.82	8.02	2.07	12.1	3.58	25.6
CCN(CC)S(=O)(=O)c1cccc(-c2ccc3c(NC(=O)C4CC4)n[nH]c3c2)c1	1.71	2.26	> 6.25	1.83	> 6.25	1.08	> 6.25	3.78	> 6.25	1.08	> 6.25	1.61	3.06	> 6.25	1.05	> 6.25	5.06	> 6.25	> 6.25	> 6.25
c1cc(C2CCCCC2)ccc1-c1cnc2nonc2n1	1.99	1.35	3.02	1.02	> 58.3	0.973	3.65	1.75	4.22	0.548	2.56	0.856	1.36	2.99	0.631	2.78	1.28	2.79	6.39	2.28
COc1cccc(N2CCN(c3ncnc4cc[nH]c34)CC2)c1	11.2	43.2	> 100	35.7	> 100	9.8	85	1.59	75.7	8.78	64.1	1.73	10.7	62.3	2.92	44.1	25.5	> 100	45.5	> 100
O=C(N=Nc1c(Cl)c(O)c2ccccc2c1O)C(=O)Nc1cccc(C(F)(F)F)c1	10.9	2.73	5.15	2.6	8.6	5.45	16.6	6.78	28.2	2.82	10.9	6.03	10.4	23.3	4.92	41.3	14.2	27.4	24.6	26.9
CSc1nnc(-c2cc3c([nH]c4ccccc43)c(-c3cccc(O)c3)n2)n1-c1ccc(C)cc1	4.49	4.57	77.6	3.86	72.1	3.86	> 100	3.32	18	2.26	11.1	2.73	2.23	7.74	1.95	8.16	3.01	9.64	43.6	8.61
C=CCC(N[C@H](CO)c1ccccc1)c1ccccn1 (some centres not stated)	> 100	> 100	> 100	> 100	> 100	> 100	> 100	> 100	> 100	> 100	> 100	> 100	> 100	> 100	> 100	> 100	> 100	> 100	> 100	> 100

From PubChem BioAssay (NCI)
